Reference: ChEMBL document CHEMBL1667824 (Bioorg Med Chem, 2011)

What was measured:
[1] = biological target: T1, Lactoylglutathione lyase (Homo sapiens, UniProt Q04760); experiment: Inhibition of glyoxalase 1
[2] = biological target: T1, Lactoylglutathione lyase; experiment: Inhibition of human recombinant His-tagged glyoxalase 1 expressed in Escherichia coli BL21 (DE3) preincubated for 20 mins by Dixon plot analysis

T1 sequence (Q04760 whole entry): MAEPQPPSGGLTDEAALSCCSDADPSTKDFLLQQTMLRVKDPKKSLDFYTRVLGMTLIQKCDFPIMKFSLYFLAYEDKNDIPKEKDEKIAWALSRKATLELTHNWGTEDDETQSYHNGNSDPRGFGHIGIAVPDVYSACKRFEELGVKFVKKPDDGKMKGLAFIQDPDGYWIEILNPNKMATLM

Ki [1] [µM] | Ki [2] [µM] | Compound
400 | 383 | CC(C(=O)O)c1cccc(Oc2ccccc2)c1 (configuration not stated) [FENOPROFEN]
 | 159 | CCOC(=O)/C(=C\c1ccc([N+](=O)[O-])cc1)C(C)=O
87.8 | 1010 | Cc1ccc(C(=O)c2ccc(CC(=O)O)n2C)cc1 [TOLMETIN]
18.1 | 24 | COc1ccc2c(c1)c(CC(=O)O)c(C)n2C(=O)c1ccc(Cl)cc1 [INDOMETHACIN]
 | 39 | CCOC(=O)/C(=C\C=C(\C(C)=O)C(=O)OCC)C(C)=O
 | 2.6 | COc1cc(/C=C/C(=O)C(=Cc2cccc(F)c2)C(=O)/C=C/c2ccc(O)c(OC)c2)ccc1O
 | 18 | COc1cc(/C=C/C(O)=C/C(=O)/C=C/c2ccc[nH]2)ccc1O
 | 29 | COc1ccc(/C=C/C(=O)/C=C(O)/C=C/c2ccc(O)cc2)cc1OC
 | 109 | COc1ccc(/C=C/C(=O)C(=CO)C(=O)/C=C/c2ccc(OC)cc2)cc1
 | 18 | O=C(/C=C/c1ccc(O)cc1)CC(=O)/C=C/c1ccc(O)cc1 [BISDEMETHOXYCURCUMIN]
 | 3.6 | COc1cc(C=C(C(=O)/C=C/c2ccc(O)c(OC)c2)C(=O)/C=C/c2ccc(O)c(OC)c2)ccc1O
 | 27 | CC(=O)C(=Cc1ccc([N+](=O)[O-])o1)C(C)=O
 | 383 | COc1ccc(C=C(C(C)=O)C(C)=O)cc1
 | 3.2 | COc1cc(/C=C/C(=O)C(=Cc2ccc(F)cc2)C(=O)/C=C/c2ccc(O)c(OC)c2)ccc1O
 | 4.6 | COc1cc(/C=C/C(=O)C(=Cc2ccc(OC)c(OC)c2)C(=O)/C=C/c2ccc(O)c(OC)c2)ccc1O
77.9 | 139 | CC1=C(CC(=O)O)c2cc(F)ccc2/C1=C\c1ccc([S+](C)[O-])cc1 (configuration not stated)
107 | 335 | Cc1cc(CC(=O)O)n(C)c1C(=O)c1ccc(Cl)cc1 [ZOMEPIRAC]
12.9 | 49 | COc1ccc2c(c1)c(CC(=O)OCC(=O)O)c(C)n2C(=O)c1ccc(Cl)cc1 [ACEMETACIN]
 | 4.6 | O=C(/C=C(O)/C=C/c1ccc(F)cc1)/C=C/c1ccc(F)cc1
 | 3.6 | COc1ccc(/C=C/C(=O)C(=Cc2ccc(C=O)c(C=O)c2)C(=O)/C=C/c2ccc(OC)c(OC)c2)cc1OC
 | 1910 | COC(=O)/C=C/c1ccc(F)cc1
 | 1500 | O=C(/C=C(O)/C=C/c1ccco1)/C=C/c1ccco1
 | 1390 | NC(=O)/C=C/c1ccc(F)cc1
414 | 843 | CC(C(=O)O)c1cccc(C(=O)c2ccccc2)c1 (configuration not stated) [KETOPROFEN]
 | 385 | CCOC(=O)/C=C/c1ccc(O)c(OC)c1 [ETHYL FERULATE]
 | 426 | O=C(O)C(=Cc1cccc([N+](=O)[O-])c1)C(=O)O
 | 91 | CC(=O)C(=Cc1cccc([N+](=O)[O-])c1)C(C)=O
 | 90 | COc1cc(/C=C/C(O)=C/C(C)=O)ccc1O
 | 74 | COc1ccc(/C=C/C(=O)/C=C(O)/C=C/c2ccc(CO)o2)cc1
 | 65 | CCOC(=O)/C(=C\c1cccc([N+](=O)[O-])c1)C(C)=O
